Measured values published in the supplement of paper PMC10307832.

How the values were obtained:
Test in all cases: relative viability (nuclei count vs DMSO), 5 days (fraction); higher = more cells survive
[1] = compound: C1CC(C1)(C(=O)O)C(=O)O.[NH2-].[NH2-].[Pt+2] [Carboplatin] + CS(=O)(=O)CCNCc1ccc(-c2ccc3ncnc(Nc4ccc(OCc5cccc(F)c5)c(Cl)c4)c3c2)o1 [Lapatinib] (partner 2 µM)
Outline: (§1)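 Five library-drug doses in √10 steps were combined with a fixed anchor-drug dose, or a single drug was given alone, by pin tool to lung cancer cell lines in 1536-well plates the day after seeding. Nuclei were stained and counted after 5 days. Relative viability is the nuclei count in treated wells over that in vehicle wells, taken as the median of duplicate plates.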

[2] = compound: CC[C@H](C)N1C=C(C2=C(C=C(C=C21)C3=CN=C(C=C3)N4CCNCC4)C(=O)NCC5=C(C=C(NC5=O)C)C)C [GSK126] + CC1(C)CCC(c2ccc(Cl)cc2)=C(CN2CCN(c3ccc(C(=O)NS(=O)(=O)c4ccc(N[C@H](CCN5CCOCC5)CSc5ccccc5)c(S(=O)(=O)C(F)(F)F)c4)cc3)CC2)C1 [Navitoclax] (partner 0.5 µM)
Outline: as §1

[3] = compound: C1CC(C1)(C(=O)O)C(=O)O.[NH2-].[NH2-].[Pt+2] [Carboplatin] + CCNC(=O)c1noc(-c2cc(C(C)C)c(O)cc2O)c1-c1ccc(CN2CCOCC2)cc1 [Luminespib] (partner 0.01 µM)
Outline: as §1

[4] = compound: NS(=O)(=O)OC[C@@H]1C[C@@H](n2ccc3c(N[C@H]4CCc5ccccc54)ncnc32)C[C@@H]1O [MLN4924] + COc1cccc2cc(-c3nc([C@H]4CC[C@H](C(=O)O)CC4)n4ncnc(N)c34)[nH]c12 [OSI-027] (partner 0.5 µM)
Outline: as §1

EPLC-272H
relative viability ([1]; first compound 0.08 µM): 1.01
relative viability ([1]; first compound 0.253 µM): 1.14
relative viability ([1]; first compound 0.8 µM): 0.961
relative viability ([1]; first compound 2.53 µM): 0.981
relative viability ([1]; first compound 8 µM): 0.901
relative viability ([2]; first compound 0.08 µM): 1.24
relative viability ([2]; first compound 0.253 µM): 1.15
relative viability ([2]; first compound 0.8 µM): 1.29
relative viability ([2]; first compound 2.53 µM): 1.17
relative viability ([2]; first compound 8 µM): 1.2
relative viability ([3]; first compound 0.08 µM): 0.308
relative viability ([3]; first compound 0.253 µM): 0.297
relative viability ([3]; first compound 0.8 µM): 0.266
relative viability ([3]; first compound 2.53 µM): 0.387
relative viability ([3]; first compound 8 µM): 0.226
relative viability ([4]; first compound 0.04 µM): 0.291
relative viability ([4]; first compound 0.1265 µM): 0.265
relative viability ([4]; first compound 0.4 µM): 0.0696
relative viability ([4]; first compound 1.265 µM): 0.13
relative viability ([4]; first compound 4 µM): 0.136

LCLC-97TM1
relative viability ([1]; first compound 0.08 µM): 0.891
relative viability ([1]; first compound 0.8 µM): 1.02
relative viability ([1]; first compound 2.53 µM): 1.08
relative viability ([1]; first compound 8 µM): 1
relative viability ([2]; first compound 0.08 µM): 0.587
relative viability ([2]; first compound 0.8 µM): 0.379
relative viability ([2]; first compound 2.53 µM): 0.525
relative viability ([2]; first compound 8 µM): 0.798
relative viability ([3]; first compound 0.08 µM): 0.726
relative viability ([3]; first compound 0.253 µM): 0.667
relative viability ([3]; first compound 0.8 µM): 0.65
relative viability ([3]; first compound 2.53 µM): 0.732
relative viability ([3]; first compound 8 µM): 0.722
relative viability ([4]; first compound 0.04 µM): 0.601
relative viability ([4]; first compound 0.1265 µM): 0.247
relative viability ([4]; first compound 0.4 µM): 0.239
relative viability ([4]; first compound 1.265 µM): 0.131
relative viability ([4]; first compound 4 µM): 0.116

LK-2
relative viability ([1]; first compound 0.08 µM): 1.17
relative viability ([1]; first compound 0.253 µM): 0.956
relative viability ([1]; first compound 0.8 µM): 0.858
relative viability ([1]; first compound 2.53 µM): 0.792
relative viability ([1]; first compound 8 µM): 0.809
relative viability ([2]; first compound 0.08 µM): 0.957
relative viability ([2]; first compound 0.253 µM): 0.772
relative viability ([2]; first compound 0.8 µM): 0.819
relative viability ([2]; first compound 2.53 µM): 0.789
relative viability ([2]; first compound 8 µM): 0.756
relative viability ([3]; first compound 0.08 µM): 0.177
relative viability ([3]; first compound 0.253 µM): 0.198
relative viability ([3]; first compound 0.8 µM): 0.179
relative viability ([3]; first compound 2.53 µM): 0.16
relative viability ([3]; first compound 8 µM): 0.178
relative viability ([4]; first compound 0.04 µM): 0.214
relative viability ([4]; first compound 0.1265 µM): 0.214
relative viability ([4]; first compound 0.4 µM): 0.191
relative viability ([4]; first compound 1.265 µM): 0.202
relative viability ([4]; first compound 4 µM): 0.17

CAL-12T
relative viability ([1]; first compound 0.08 µM): 0.754
relative viability ([1]; first compound 0.253 µM): 0.624
relative viability ([1]; first compound 0.8 µM): 0.749
relative viability ([1]; first compound 2.53 µM): 0.755
relative viability ([1]; first compound 8 µM): 0.639
relative viability ([2]; first compound 0.08 µM): 1.27
relative viability ([2]; first compound 0.253 µM): 1.27
relative viability ([2]; first compound 0.8 µM): 0.967
relative viability ([2]; first compound 2.53 µM): 1.1
relative viability ([2]; first compound 8 µM): 1.33
relative viability ([3]; first compound 0.08 µM): 0.324
relative viability ([3]; first compound 0.253 µM): 0.334
relative viability ([3]; first compound 0.8 µM): 0.317
relative viability ([3]; first compound 2.53 µM): 0.579
relative viability ([3]; first compound 8 µM): 0.282
relative viability ([4]; first compound 0.04 µM): 0.619
relative viability ([4]; first compound 0.1265 µM): 0.593
relative viability ([4]; first compound 0.4 µM): 0.283
relative viability ([4]; first compound 1.265 µM): 0.184
relative viability ([4]; first compound 4 µM): 0.113

NCI-H322M
relative viability ([1]; first compound 0.08 µM): 0.653
relative viability ([1]; first compound 0.253 µM): 0.639
relative viability ([1]; first compound 0.8 µM): 0.55
relative viability ([1]; first compound 2.53 µM): 0.561
relative viability ([1]; first compound 8 µM): 0.609
relative viability ([2]; first compound 0.08 µM): 1.19
relative viability ([2]; first compound 0.253 µM): 1.35
relative viability ([2]; first compound 0.8 µM): 1.11
relative viability ([2]; first compound 2.53 µM): 1.22
relative viability ([2]; first compound 8 µM): 1.17
relative viability ([3]; first compound 0.08 µM): 1.09
relative viability ([3]; first compound 0.253 µM): 0.749
relative viability ([3]; first compound 0.8 µM): 0.752
relative viability ([3]; first compound 2.53 µM): 0.633
relative viability ([3]; first compound 8 µM): 0.61
relative viability ([4]; first compound 0.04 µM): 0.622
relative viability ([4]; first compound 0.1265 µM): 0.588
relative viability ([4]; first compound 0.4 µM): 0.339
relative viability ([4]; first compound 1.265 µM): 0.272
relative viability ([4]; first compound 4 µM): 0.329

NCI-H2126
relative viability ([1]; first compound 0.08 µM): 0.737
relative viability ([1]; first compound 0.253 µM): 0.758
relative viability ([1]; first compound 0.8 µM): 0.796
relative viability ([1]; first compound 2.53 µM): 0.8
relative viability ([1]; first compound 8 µM): 0.721
relative viability ([2]; first compound 0.08 µM): 0.915
relative viability ([2]; first compound 0.253 µM): 0.919
relative viability ([2]; first compound 0.8 µM): 0.812
relative viability ([2]; first compound 2.53 µM): 0.852
relative viability ([2]; first compound 8 µM): 0.934
relative viability ([3]; first compound 0.08 µM): 0.862
relative viability ([3]; first compound 0.253 µM): 1.07
relative viability ([3]; first compound 0.8 µM): 0.992
relative viability ([3]; first compound 2.53 µM): 0.931
relative viability ([3]; first compound 8 µM): 0.695
relative viability ([4]; first compound 0.04 µM): 0.665
relative viability ([4]; first compound 0.1265 µM): 0.75
relative viability ([4]; first compound 0.4 µM): 0.59
relative viability ([4]; first compound 1.265 µM): 0.407
relative viability ([4]; first compound 4 µM): 0.346

NCI-H596
relative viability ([1]; first compound 0.08 µM): 1.21
relative viability ([1]; first compound 0.253 µM): 1
relative viability ([1]; first compound 0.8 µM): 1.07
relative viability ([1]; first compound 2.53 µM): 0.943
relative viability ([1]; first compound 8 µM): 0.886
relative viability ([2]; first compound 0.08 µM): 0.92
relative viability ([2]; first compound 0.253 µM): 0.85
relative viability ([2]; first compound 0.8 µM): 0.988
relative viability ([2]; first compound 2.53 µM): 1.1
relative viability ([2]; first compound 8 µM): 0.961
relative viability ([3]; first compound 0.08 µM): 1.02
relative viability ([3]; first compound 0.253 µM): 1
relative viability ([3]; first compound 0.8 µM): 0.4
relative viability ([3]; first compound 2.53 µM): 0.342
relative viability ([3]; first compound 8 µM): 0.746
relative viability ([4]; first compound 0.04 µM): 0.669
relative viability ([4]; first compound 0.1265 µM): 0.87
relative viability ([4]; first compound 1.265 µM): 0.765
relative viability ([4]; first compound 4 µM): 0.596

LU99A
relative viability ([1]; first compound 0.08 µM): 0.988
relative viability ([1]; first compound 0.253 µM): 1.04
relative viability ([1]; first compound 0.8 µM): 1.01
relative viability ([1]; first compound 2.53 µM): 0.917
relative viability ([1]; first compound 8 µM): 0.795
relative viability ([2]; first compound 0.08 µM): 0.926
relative viability ([2]; first compound 0.253 µM): 0.812
relative viability ([2]; first compound 0.8 µM): 0.705
relative viability ([2]; first compound 2.53 µM): 0.777
relative viability ([2]; first compound 8 µM): 0.766
relative viability ([3]; first compound 0.08 µM): 0.29
relative viability ([3]; first compound 0.253 µM): 0.319
relative viability ([3]; first compound 0.8 µM): 0.247
relative viability ([3]; first compound 2.53 µM): 0.188
relative viability ([3]; first compound 8 µM): 0.211
relative viability ([4]; first compound 0.04 µM): 0.293
relative viability ([4]; first compound 0.1265 µM): 0.315
relative viability ([4]; first compound 0.4 µM): 0.247
relative viability ([4]; first compound 1.265 µM): 0.196
relative viability ([4]; first compound 4 µM): 0.222

NCI-H1666
relative viability ([1]; first compound 0.08 µM): 0.662
relative viability ([1]; first compound 0.253 µM): 0.665
relative viability ([1]; first compound 0.8 µM): 0.578
relative viability ([1]; first compound 2.53 µM): 0.498
relative viability ([1]; first compound 8 µM): 0.468
relative viability ([2]; first compound 0.08 µM): 1.08
relative viability ([2]; first compound 0.253 µM): 0.982
relative viability ([2]; first compound 0.8 µM): 1.02
relative viability ([2]; first compound 2.53 µM): 0.833
relative viability ([2]; first compound 8 µM): 1.12
relative viability ([3]; first compound 0.08 µM): 1.02
relative viability ([3]; first compound 0.253 µM): 1.02
relative viability ([3]; first compound 0.8 µM): 0.814
relative viability ([3]; first compound 2.53 µM): 0.824
relative viability ([3]; first compound 8 µM): 0.702
relative viability ([4]; first compound 0.04 µM): 0.862
relative viability ([4]; first compound 0.1265 µM): 0.892
relative viability ([4]; first compound 0.4 µM): 0.711
relative viability ([4]; first compound 1.265 µM): 0.351
relative viability ([4]; first compound 4 µM): 0.325

NCI-H520
relative viability ([1]; first compound 0.08 µM): 1.07
relative viability ([1]; first compound 0.253 µM): 0.985
relative viability ([1]; first compound 0.8 µM): 1.03
relative viability ([1]; first compound 2.53 µM): 0.784
relative viability ([1]; first compound 8 µM): 0.59
relative viability ([2]; first compound 0.08 µM): 1.24
relative viability ([2]; first compound 0.253 µM): 1.02
relative viability ([2]; first compound 0.8 µM): 1.03
relative viability ([2]; first compound 2.53 µM): 1.14
relative viability ([2]; first compound 8 µM): 1.34
relative viability ([3]; first compound 0.08 µM): 0.256
relative viability ([3]; first compound 0.253 µM): 0.209
relative viability ([3]; first compound 0.8 µM): 0.183
relative viability ([3]; first compound 2.53 µM): 0.21
relative viability ([3]; first compound 8 µM): 0.211
relative viability ([4]; first compound 0.04 µM): 0.294
relative viability ([4]; first compound 0.1265 µM): 0.295
relative viability ([4]; first compound 0.4 µM): 0.363
relative viability ([4]; first compound 1.265 µM): 0.202
relative viability ([4]; first compound 4 µM): 0.191
